Source: ChEMBL document CHEMBL4196232, “A Series of Indole-Thiazole Derivatives Act as GPER Agonists and Inhibit Breast Cancer Cell Growth” (ACS Med Chem Lett, 2018)
Active and inactive are the calls of the source. The rule behind the calls is not given here.

Key:
[1] = biological target: T1, G-protein coupled estrogen receptor 1 (Homo sapiens, UniProt Q99527); experiment: Agonist activity at GPER (unknown origin) expressed in human HL60 cells assessed as increase in cAMP accumulation in presence of IBMX after 15 mins by HTRF assay; type: functional, cell-based
[2] = biological target: T1, G-protein coupled estrogen receptor 1; experiment: Antagonist activity at GPER (unknown origin) expressed in human HL60 cells assessed as inhibition of G-1-induced cAMP accumulation preincubated for 20 mins followed by G-1 addition measured after 10 mins by HTRF assay; type: functional, cell-based
MDA-MB-231 [3] = experiment: Cytotoxicity against human MDA-MB-231 cells assessed as decrease in cell viability at 1 uM after 72 hrs in presence of GPER agonist E2 by MTS assay; type: functional, cell-based
MDA-MB-231 [4] = experiment: Cytotoxicity against human MDA-MB-231 cells assessed as decrease in cell viability at 1 uM after 72 hrs in absence of GPER agonist E2 by MTS assay; type: functional, cell-based
MCF7 = experiment: Cytotoxicity against human MCF7 cells assessed as decrease in cell viability at 1 uM after 72 hrs in presence of GPER agonist E2 by MTS assay; type: functional, cell-based
SK-BR-3 [5] = experiment: Cytotoxicity against human SKBR3 cells assessed as decrease in cell viability at 1 uM after 72 hrs in presence of GPER agonist E2 by MTS assay; type: functional, cell-based
[6] = biological target: Estrogen receptor beta (Homo sapiens) (UniProt Q92731); experiment: Displacement of fluoromone from recombinant human full length untagged estrogen receptor beta expressed in insect cells at 1 uM after 2 hrs by fluorescence polarization assay
[7] = biological target: T2, Estrogen receptor (Homo sapiens) (UniProt P03372); experiment: Displacement of fluoromone from recombinant human full length untagged estrogen receptor alpha expressed in insect cells at
T2 sequence (whole entry): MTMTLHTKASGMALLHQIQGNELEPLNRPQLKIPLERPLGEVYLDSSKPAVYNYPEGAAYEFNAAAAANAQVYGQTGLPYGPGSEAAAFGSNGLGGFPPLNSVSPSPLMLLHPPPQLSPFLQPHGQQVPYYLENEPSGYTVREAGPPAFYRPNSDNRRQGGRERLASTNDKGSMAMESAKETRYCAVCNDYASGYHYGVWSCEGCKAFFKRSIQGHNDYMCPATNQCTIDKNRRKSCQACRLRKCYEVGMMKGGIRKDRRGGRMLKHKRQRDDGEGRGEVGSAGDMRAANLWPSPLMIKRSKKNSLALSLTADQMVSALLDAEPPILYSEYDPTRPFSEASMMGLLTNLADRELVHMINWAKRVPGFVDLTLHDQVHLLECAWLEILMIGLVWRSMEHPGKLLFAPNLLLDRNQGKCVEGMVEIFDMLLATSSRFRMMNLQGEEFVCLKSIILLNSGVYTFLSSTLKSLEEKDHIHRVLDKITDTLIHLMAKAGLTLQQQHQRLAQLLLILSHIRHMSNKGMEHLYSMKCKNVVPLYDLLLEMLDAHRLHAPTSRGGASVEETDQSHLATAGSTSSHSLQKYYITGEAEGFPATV

[8] = biological target: T2, Estrogen receptor (Homo sapiens); experiment: Displacement of fluoromone from recombinant human full length untagged estrogen receptor alpha expressed in insect cells at 1 uM after 2 hrs by fluorescence polarization assay
SK-BR-3 [9] = experiment: Cytotoxicity against human SKBR3 cells assessed as decrease in cell viability at 1 uM after 72 hrs in absence of GPER agonist E2 by MTS assay; type: functional, cell-based
[10] = biological target: Estrogen receptor beta (Homo sapiens) (UniProt Q92731); experiment: Displacement of fluoromone from recombinant human full length untagged estrogen receptor beta expressed in insect cells at
[11] = biological target: Estrogen receptor beta (Homo sapiens) (UniProt Q92731); experiment: Displacement of fluoromone from recombinant human full length untagged estrogen receptor beta expressed in insect cells after 2 hrs by fluorescence polarization assay
HL-60 = experiment: Decrease in cAMP accumulation in human HL60 cells harboring GPER siRNA at 100 nM after 48 hrs by HTRF assay; type: functional, cell-based

Estrogen receptor beta (Homo sapiens), sequence (Q92731 whole entry): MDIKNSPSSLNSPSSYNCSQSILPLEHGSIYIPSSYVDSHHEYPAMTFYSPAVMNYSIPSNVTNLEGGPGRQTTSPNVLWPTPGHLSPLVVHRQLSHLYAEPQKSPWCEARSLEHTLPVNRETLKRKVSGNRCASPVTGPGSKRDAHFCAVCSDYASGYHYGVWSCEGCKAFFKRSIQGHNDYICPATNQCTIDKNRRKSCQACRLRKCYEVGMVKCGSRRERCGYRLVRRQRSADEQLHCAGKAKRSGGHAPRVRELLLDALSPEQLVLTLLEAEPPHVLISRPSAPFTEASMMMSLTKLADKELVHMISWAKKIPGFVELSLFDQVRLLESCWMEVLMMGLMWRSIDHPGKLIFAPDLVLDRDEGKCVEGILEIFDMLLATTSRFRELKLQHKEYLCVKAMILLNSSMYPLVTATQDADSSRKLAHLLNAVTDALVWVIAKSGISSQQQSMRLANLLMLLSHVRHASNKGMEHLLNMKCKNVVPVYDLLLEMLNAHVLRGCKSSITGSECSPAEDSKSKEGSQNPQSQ
T1 sequence (Q99527 whole entry): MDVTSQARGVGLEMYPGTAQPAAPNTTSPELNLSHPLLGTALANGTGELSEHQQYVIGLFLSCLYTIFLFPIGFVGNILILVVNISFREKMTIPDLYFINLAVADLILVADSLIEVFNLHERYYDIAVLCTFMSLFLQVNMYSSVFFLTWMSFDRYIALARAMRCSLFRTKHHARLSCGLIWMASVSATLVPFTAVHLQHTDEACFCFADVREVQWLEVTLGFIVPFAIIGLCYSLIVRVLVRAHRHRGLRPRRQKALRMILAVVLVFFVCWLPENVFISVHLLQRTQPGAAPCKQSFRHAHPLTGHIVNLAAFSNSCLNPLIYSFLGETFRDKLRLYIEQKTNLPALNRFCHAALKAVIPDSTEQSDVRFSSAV

SMILES | inhibition [2] | Activity (MDA-MB-231 [3]) | Activity (MDA-MB-231 [4]) | Activity (MCF7) | Activity (SK-BR-3 [5]) | Activity (SK-BR-3 [9]) | also measured
Brc1cc2c(cc1[C@@H]1Nc3ccccc3[C@@H]3C=CC[C@@H]31)OCO2 | – | inactive | inactive | Active | – | – | –
CCc1nc(NC(=O)c2[nH]c3ccc(Br)cc3c2Cl)sc1C | – | inactive | inactive | Active | inactive | inactive | Activity [6]: Active; Activity [7]: inactive; EC50 [1]: 480 nM; Activity [8]: Active; Activity [10]: inactive
COc1cc(OC)c2[nH]c(C(=O)Nc3ncc(Cc4ccccc4)s3)cc2c1 | inactive | – | – | – | – | – | –
CC(=O)c1ccc2c(c1)[C@@H]1C=CC[C@@H]1[C@H](c1cc3c(cc1Br)OCO3)N2 | – | Active | Active | Active | Active | Active | Activity [11]: inactive; Activity (HL-60): inactive
CSc1ncc(Cl)c(C(=O)Nc2ncc(Cc3ccc(F)cc3)s2)n1 | inactive | – | – | – | – | – | –
O=C(Nc1ncc(Cc2ccc(F)cc2F)s1)c1[nH]c2ccccc2c1Cl | – | Active | Active | Active | Active | Active | Activity [11]: inactive; Activity [7]: inactive; Activity (HL-60): inactive; EC50 [1]: 1620 nM; Activity [10]: inactive

Further lines, with some results ahead:

inhibition [2] | SMILES | Activity (MDA-MB-231 [3]) | Activity (MDA-MB-231 [4]) | Activity (MCF7) | Activity (SK-BR-3 [5]) | Activity (SK-BR-3 [9]) | also measured
inactive | O=C(Nc1nc2c(s1)CCC2)c1cc2cc(Br)ccc2[nH]1 | – | – | – | – | – | Activity [1]: inactive
inactive | N#Cc1ccc(Cc2cnc(NC(=O)c3cc4cc(F)ccc4[nH]3)s2)cc1 | – | – | – | – | – | –
inactive | CC(C)c1csc(NC(=O)c2cc3c(Cl)cccc3[nH]2)n1 | – | – | – | – | – | Activity [1]: inactive
inactive | O=C(Nc1ncc(Cc2ccc(F)cc2)s1)c1cc2cc(F)ccc2[nH]1 | inactive | inactive | – | inactive | inactive | Activity [6]: Active; EC50 [1]: 20 nM; Activity [8]: Active
inactive | O=C(Nc1nc2c(s1)CCC2)c1cc2cc(F)ccc2[nH]1 | – | – | – | – | – | Activity [1]: inactive
